Laboratory results: patent US20230066011A1, “PYRROLOPYRIMIDINE DERIVATIVE, AND PHARMACEUTICAL COMPOSITION FOR PREVENTING OR TREATING PROTEIN KINASE-RELATED DISEASE COMPRISING SAME AS ACTIVE INGREDIENT” (VORONOI CO., LTD., priority 2019, published 2023)

Assays:
human GST-CLK1 = molecular target: T1, human GST-CLK1 (Homo sapiens, UniProt P49759); experiment: GST-CLK1 enzyme inhibition, ADP-Glo kinase assay; type: biochemical; conditions: ATP 10 μM, GST-CLK1 129-end
T1 construct: purified human GST-CLK1 (129-end, SignalChem) enzyme; purchased SignalChem
T1 sequence (P49759 129-484 limits assumed): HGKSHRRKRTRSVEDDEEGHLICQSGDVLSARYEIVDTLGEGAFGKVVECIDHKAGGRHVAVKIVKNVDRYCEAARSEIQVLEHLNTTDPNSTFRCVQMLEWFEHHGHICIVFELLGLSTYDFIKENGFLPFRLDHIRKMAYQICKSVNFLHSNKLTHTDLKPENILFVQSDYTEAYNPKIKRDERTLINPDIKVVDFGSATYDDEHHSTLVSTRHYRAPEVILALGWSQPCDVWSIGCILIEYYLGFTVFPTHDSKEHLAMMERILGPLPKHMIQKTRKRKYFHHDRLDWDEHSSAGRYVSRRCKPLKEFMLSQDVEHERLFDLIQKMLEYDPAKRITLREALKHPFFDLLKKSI
Method in brief: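 ADP-Glo luminescence read-out, relative to untreated solvent control, gave IC50 (nM) from triplicate data sets. Reactions ran an hour at 25° C with 3 ng GST-CLK1 (residues 129-end), 10 μM ATP and specific substrate in Tris-HCl pH 7.4 buffer with MgCl2, BSA and DTT.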

human GST-DYRK1A = molecular target: T2, human GST-DYRK1A (Homo sapiens, UniProt Q13627); experiment: GST-DYRK1A enzyme inhibition, ADP-Glo kinase assay; type: biochemical; conditions: ATP 10 μM, GST-DYRK1A full length, read-out: DYRK1 IC50
T2 construct: purified human GST-DYRK1A (full length, Thermo Scientifics) enzyme; purchased Thermo Scientifics
Method in brief: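 Full-length enzyme (10 ng) was incubated with 10 μM ATP and a specific substrate for 1 h at 25 °C in 40 mM Tris-HCl pH 7.4, 20 mM MgCl2, 0.5 mg/mL BSA, 50 μM DTT. Luminescence was read against a solvent control, and IC50 values were derived from 3 data sets.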

human DYRK1A and tau = experiment: Inhibition of tau phosphorylation, ClariCELL Kinase Cell-Based Assay, HEK 293 cells expressing human DYRK1A and tau; conditions: for inhibition at 1 µM: HEK293, read-out: % inhibition at 1 uM, tau phosphorylation, compound 1 uM; for inhibition at 0.25 µM / inhibition at 0.5 µM: HEK293, tau phosphorylation; for inhibition at 0.25 µM: compound 0.25 uM; for inhibition at 0.5 µM: compound 0.5 uM
Description: An inhibitory effect on tau phosphorylation was determined using the ClariCELL™ Kinase Cell-Based Assay service (commercially available from CamaBio USA, Inc.). Human embryonic kidney (HEK 293) cells temporarily expressing human DYRK1A and tau were exposed to the compound, and then lysed to release cell proteins. In this case, the released tau was captured on a plate, and a degree of phosphorylation was quantified by ELISA using a tau phosphorylation-specific antibody.

LRRK2 (G2019S) = LRRK2 (G2019S) (Homo sapiens, UniProt Q5S007, G2019S); experiment: LRRK2 G2019S enzyme inhibition, ADP-Glo kinase assay; type: biochemical; set-up: purchased SignalChem L10-12GG; conditions: ATP 25 μM
LRRK2 (G2019S), sequence (Q5S007 970-2527 G2019S limits assumed): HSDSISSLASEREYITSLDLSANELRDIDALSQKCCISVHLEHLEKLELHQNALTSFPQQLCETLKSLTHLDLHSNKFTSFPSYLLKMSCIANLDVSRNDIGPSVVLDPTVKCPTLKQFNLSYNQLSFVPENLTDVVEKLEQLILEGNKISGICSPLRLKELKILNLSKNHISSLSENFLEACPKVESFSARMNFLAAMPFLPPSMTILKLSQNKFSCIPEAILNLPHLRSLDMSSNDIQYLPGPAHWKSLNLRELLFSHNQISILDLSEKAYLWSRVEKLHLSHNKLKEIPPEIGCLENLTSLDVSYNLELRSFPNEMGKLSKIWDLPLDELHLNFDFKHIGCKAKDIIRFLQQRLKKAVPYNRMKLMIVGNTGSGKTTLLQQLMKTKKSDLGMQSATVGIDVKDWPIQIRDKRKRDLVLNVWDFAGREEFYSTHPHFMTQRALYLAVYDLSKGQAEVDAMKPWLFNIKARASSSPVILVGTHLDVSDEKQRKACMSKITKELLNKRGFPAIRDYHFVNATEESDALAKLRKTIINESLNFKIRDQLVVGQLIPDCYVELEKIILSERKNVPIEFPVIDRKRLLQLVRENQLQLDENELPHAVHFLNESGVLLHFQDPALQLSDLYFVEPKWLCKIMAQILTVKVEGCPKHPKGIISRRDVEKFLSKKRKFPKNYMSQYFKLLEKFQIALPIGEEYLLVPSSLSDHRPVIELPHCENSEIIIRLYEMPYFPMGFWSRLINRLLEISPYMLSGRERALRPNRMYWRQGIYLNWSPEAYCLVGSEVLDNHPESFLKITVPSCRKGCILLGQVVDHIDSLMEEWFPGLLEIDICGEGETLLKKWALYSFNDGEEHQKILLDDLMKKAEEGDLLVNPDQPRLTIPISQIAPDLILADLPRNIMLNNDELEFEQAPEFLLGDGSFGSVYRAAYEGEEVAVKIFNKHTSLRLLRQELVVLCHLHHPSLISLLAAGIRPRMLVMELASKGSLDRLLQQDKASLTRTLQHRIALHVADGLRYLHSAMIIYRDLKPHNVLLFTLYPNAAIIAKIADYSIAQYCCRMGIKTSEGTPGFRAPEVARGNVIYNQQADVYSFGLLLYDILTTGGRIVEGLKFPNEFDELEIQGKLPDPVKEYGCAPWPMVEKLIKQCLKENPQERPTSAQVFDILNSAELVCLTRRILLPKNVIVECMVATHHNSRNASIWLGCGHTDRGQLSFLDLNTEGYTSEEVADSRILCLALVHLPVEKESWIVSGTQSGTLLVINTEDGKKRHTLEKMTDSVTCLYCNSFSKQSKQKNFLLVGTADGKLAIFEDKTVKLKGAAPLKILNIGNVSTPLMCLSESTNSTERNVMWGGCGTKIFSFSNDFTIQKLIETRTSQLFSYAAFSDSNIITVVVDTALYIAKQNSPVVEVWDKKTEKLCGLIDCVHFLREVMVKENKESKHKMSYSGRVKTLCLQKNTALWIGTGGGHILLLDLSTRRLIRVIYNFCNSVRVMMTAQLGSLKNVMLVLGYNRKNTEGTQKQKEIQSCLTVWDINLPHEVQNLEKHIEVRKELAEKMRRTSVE
Method in brief: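 IC50 derived from luminescent ADP-Glo readout against untreated solvent control, twelve final compound concentrations from 50 μM downward. Reaction: recombinant human LRRK2 G2019S enzyme, 25 μM ATP, substrate, pH 7.4 Tris buffer with MgCl2/BSA/DTT, 25° C. for 2 hours.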

LRRK2 = LRRK2 (Homo sapiens, UniProt Q5S007); experiment: LRRK2 enzyme inhibition, ADP-Glo kinase assay; type: biochemical; set-up: purchased Invitrogen PR8604B; conditions: ATP 10 μM
LRRK2, sequence (Q5S007 970-2527 limits assumed): as the sequence (Q5S007 970-2527 G2019S limits assumed) above, with S1050G counted along it
Method in brief: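 ADP-Glo luminescent read-out of ADP formed by purified human LRRK2 enzyme (25 ng), 10 μM ATP, 0.2 μg substrate, 25° C for 2 h, Tris-HCl pH 7.4 buffer with MgCl2, BSA, DTT. Inhibition versus untreated solvent control over twelve final concentrations (50 μM downward) gives IC50.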

| IC50 (human GST-CLK1) | IC50 (human GST-DYRK1A) | IC50 (LRRK2 (G2019S)) | IC50 (LRRK2) | SMILES | inhibition at 1 µM (human DYRK1A and tau) | inhibition at 0.25 µM (human DYRK1A and tau) | inhibition at 0.5 µM (human DYRK1A and tau) |
| --- | --- | --- | --- | --- | --- | --- | --- |
| 301 to 1000 nM | 301 to 1000 nM | < 100 nM | – | N#Cc1c[nH]c2nc(Nc3ccc(C(=O)N4CCC(N5CCOCC5)CC4)c4c3OCC4)nc(NCC3CCCC3)c12 [Example 343, 4-((cyclo-pentylmeth-yl)amino)-2-((4-(4-morpholinopiperidine-- 1-carbonyl)-2,3-dihydro-benzofuran-7-yl)amino)-7H-pyrrolo[2,3-d]pyrimidine-5-carbonitrile] | 52% | -44.3% | 16.7% |
| < 100 nM | < 100 nM | < 100 nM | < 100 nM | CCCNc1nc(Nc2ccc(C(=O)N3CCC(N4CCOCC4)CC3)c3c2OCCO3)nc2[nH]cc(C(F)(F)F)c12 [Example 364, (4-morpholino-piperidin-1-yl)(8-((4-(propylamino)-5-(trifluoromethyl)-7H-pyrrolo[2,3-d]pyrimidin-2-yl)amino)-2,3-dihydrobenzo[b] [1,4]dioxin-5-yl)methanone] | – | – | – |
| < 100 nM | 101 to 300 nM | < 100 nM | < 100 nM | O=C(c1ccc(Nc2nc(NC3CC3)c3c(C(F)(F)F)c[nH]c3n2)c2c1OCCO2)N1CCC(N2CCOCC2)CC1 [Example 367, (8-((4-(cyclopropyl-amino)-5-(trifluoromethyl)-7H-pyrrolo[2,3-d]pyrimidin-2-yl)amino)-2,3-dihydrobenzo[b] [1,4]dioxin-5-yl)(4-morpho-linopiperidin-1-yl)methanone] | – | – | – |
| < 100 nM | 101 to 300 nM | < 100 nM | < 100 nM | O=C(c1ccc(Nc2nc(NC3CCC3)c3c(C(F)(F)F)c[nH]c3n2)c2c1OCCO2)N1CCC(N2CCOCC2)CC1 [Example 378, (8-((4-(cyclobutyl-amino)-5-(trifluoromethyl)-7H-pyrrolo[2,3-d]pyrimidin-2-yl)amino)-2,3-dihydrobenzo[b] [1,4]dioxin-5-yl) (4-morpholino-piperidin-1-yl)methanone] | – | – | – |
| 301 to 1000 nM | 301 to 1000 nM | < 100 nM | – | O=C(c1ccc(Nc2nc(NCC3CCCC3)c3c(C(F)(F)F)c[nH]c3n2)c2c1CCO2)N1CCC(N2CCOCC2)CC1 [Example 464, (7-((4-((cyclo-pentylmeth-yl)amino)-5-(trifluoromethyl)-7H-pyrrolo[2,3-d]pyrimidin-2-yl)amino)-2,3-dihydrobenzo-furan-4-yl)(4-morpholino-piperidin-1-yl)methanone] | 44.2% | 11.5% | 12.4% |
| 301 to 1000 nM | 301 to 1000 nM | < 100 nM | – | CCCCNc1nc(Nc2ccc(C(=O)N3CCC(N4CCOCC4)CC3)c3c2OCC3)nc2[nH]cc(C(F)(F)F)c12 [Example 466, (7-((4-(butylamino)-5-(trifluoromethyl)-7H-pyrrolo[2,3-d]pyrimidin-2-yl)amino)-2,3-dihydrobenzo-furan-4-yl)(4-morpholino-piperidin-1-yl)methanone] | 71.3% | 9.5% | 39.2% |

The next lines start with the molecule.

| SMILES | IC50 (human GST-CLK1) | IC50 (human GST-DYRK1A) | IC50 (LRRK2 (G2019S)) | IC50 (LRRK2) | inhibition at 1 µM (human DYRK1A and tau) | inhibition at 0.25 µM (human DYRK1A and tau) | inhibition at 0.5 µM (human DYRK1A and tau) |
| --- | --- | --- | --- | --- | --- | --- | --- |
| CNc1nc(Nc2ccc(C(=O)N3CCOCC3)c3c2OCC3)nc2[nH]cc(C(F)(F)F)c12 [Example 218, (7-((4-(methylamino)-5-(trifluoromethyl)-7H-pyrrolo[2,3-d]pyrimidin-2-yl)amino)-2,3-dihydrobenzofuran-4-yl)(morpholino)methanone] | < 100 nM | < 100 nM | – | – | 99.4% | 57.7% | 84.3% |
| N#Cc1c[nH]c2nc(Nc3ccc(C(=O)N4CCN(C5COC5)CC4)c4c3OCCO4)nc(N[C@H]3CCOC3)c12 [Example 315, (S)-2-((8-(4-(oxetan-3-yl)piperazine-1-carbonyl)-2,3-dihydrobenzo[b] [1,4]dioxin-5-yl)amino)-4-((tetrahydrofuran-3-yl)amino)-7H-pyrrolo[2,3-d]pyrimidine-5-carbonitrile] | < 100 nM | 301 to 1000 nM | – | – | 16.6% | -1.8% | 8.4% |
| N#Cc1c[nH]c2nc(Nc3ccc(C(=O)N4CCN(C5COC5)CC4)c4c3OCCO4)nc(NC3CCOCC3)c12 [Example 316, 2-((8-(4-(oxetan-3-yl)piperazine-1-carbonyl)-2,3-dihydrobenzo[b] [1,4]dioxin-5-yl)amino)-4-((tetrahydro-2H-pyran-4-yl)amino)-7H-pyrrolo[2,3-d]pyrimidine-5-carbonitrile] | < 100 nM | 301 to 1000 nM | – | – | 15.8% | 2.3% | 8.3% |
| CNc1nc(Nc2ccc(C(=O)N3CC(CO)(CO)C3)c3c2OCCO3)nc2[nH]cc(C#N)c12 [Example 325, 2-((8-(3,3-bis(hydroxy-methyl)azetidine-1-carbonyl)-2,3-dihydrobenzo[b] [1,4]dioxin-5-yl)amino)-4-(methylamino)-7H-pyrrolo[2,3-d]pyrimidine-5-carbonitrile] | < 100 nM | 101 to 300 nM | – | – | 1.9% | 6.3% | 13.5% |
| CCNc1nc(Nc2ccc(C(=O)N3CC(CO)(CO)C3)c3c2OCCO3)nc2[nH]cc(C#N)c12 [Example 326, 2-((8-(3,3-bis(hydroxy-methyl)azetidine-1-carbonyl)-2,3-dihydrobenzo[b] [1,4]dioxin-5-yl)amino)-4-(ethylamino)-7H-pyrrolo[2,3-d]pyrimidine-5-carbonitrile] | < 100 nM | 101 to 300 nM | – | – | -1.8% | -0.6% | 13.6% |
| CC[C@H](C)Nc1nc(Nc2ccc(C(=O)N3CCC(N4CCOCC4)CC3)c3c2OCC3)nc2[nH]cc(C#N)c12 [Example 357, (S)-4-(sec-butylamino)-2-((4-(4-morpholino-piperidine-1-carbonyl)-2,3-dihydro-benzofuran-7-yl)amino)-7H-pyrrolo[2,3-d]pyrimidine-5-carbonitrile] | < 100 nM | 301 to 1000 nM | < 100 nM | – | 35.4% | 19.7% | 33.1% |
| COc1cc(S(C)(=O)=O)ccc1Nc1nc(NC2CC2)c2c(C(F)(F)F)c[nH]c2n1 [Example 376, N^4-cyclopropyl-N^2-(2-methoxy-4-(methylsulfonyl)phenyl)-5-(trifluoromethyl)-7H-pyrrolo[2,3-d]pyrimidine-2,4-diamine] | 101 to 300 nM | 301 to 1000 nM | < 100 nM | < 100 nM | – | – | – |
| O=C(c1ccc(Nc2nc(NCC3CC3)c3c(C(F)(F)F)c[nH]c3n2)c2c1OCCO2)N1CCN(C2COC2)CC1 [Example 422, (8-((4-((cyclo-propylmeth-yl)amino)-5-(trifluoromethyl)-7H-pyrrolo[2,3-d]pyrimidin-2-yl)amino)-2,3-dihydrobenzo[b] [1,4]dioxin-5-yl) (4-(oxetan-3-yl)piperazin-1-yl)methanone] | < 100 nM | 301 to 1000 nM | < 100 nM | – | 33.2% | 7.4% | 19.6% |
| COc1cc(P2(=O)CCN(C3CC3)CC2)ccc1Nc1nc(NC(C)C)c2c(C(F)(F)F)c[nH]c2n1 [Example 440, 1-cyclopropyl-4-(4-((4-(isopropylamino)-5-(trifluoromethyl)-7H-pyrrolo[2,3-d]pyrimidin-2-yl)amino)-3-methoxyphenyl)-1,4-azaphosphinane 4-oxide] | 301 to 1000 nM | 301 to 1000 nM | < 100 nM | – | 36.3% | 9.6% | 27.8% |
| CC(C)Nc1nc(Nc2ccc(C(=O)N3CCN(C4COC4)CC3)c3c2OCCO3)nc2[nH]cc(C(F)(F)F)c12 [Example 441, (8-((4-(isopropylamino)-5-(trifluoromethyl)-7H-pyrrolo[2,3-d]pyrimidin-2-yl)amino)-2,3-dihydrobenzo[b] [1,4]dioxin-5-yl) (4-(oxetan-3-yl)piperazin-1-yl)methanone] | < 100 nM | 101 to 300 nM | – | – | 75.5% | 19.6% | 57.4% |
